In patent EP0463514B1, “3.3'-Dithiobis (propionic acids) and esters thereof” (priority 1990, dated 1992):
Marks after values point to notes of the source that are not given here.

Test system: delayed type hypersensitivity (DTH) reaction
Experiment: Delayed type hypersensitivity (DTH) reaction in the mouse, OXA sensitization and ear challenge, ear thickness
Assay type: in vivo, Balb/c mice
Conditions: oral feeding from sensitization to Day 6, 100 = doubled ear thickness; for % Increase, 48h: increase in ear thickness 48 hours after OXA challenge
Description: The property of the compounds of the invention to stimulate immune responses are illustrated by their efficacy in a model in the mouse of the delayed type hypersensitivity (DTH) reaction.
Both male and female Balb/c mice obtained from Bomhotsgaard (Denmark) and Charlie Rivers (England), were used at the weight of 18-20 gram. 4-ethoxymethylene-2-phenyloxazolone (OXA) was purchased from BDH (England) and served as an antigen in this test.
The mice were sensitized, Day 0, by epicutaneous application of 150 ul absolute ethanol-acetone (3:1) solution containing 3% OXA on the shaved thorax and abdomen. Treatment with the compound under examination, DiNAC (as a positive control) or vehicle (phosphate buffer, pH 7.0) was initiated by oral feeding immediately after sensitization and contiuned once to Day 6. […] (Day 6) after the sensitization both ears of all mice were challenged on both sides by topical application of 20 ul 1% OXA dissolved in olive oil. Ear thickness was measured prior to and 24 or 48 hours after challenge using an Oditest spring calliper. Challenges and measurements were performed under light pentobarbital anaesthesia. The intensity of the DTH reactions was expressed according to the formula: Tt24/48-Tt0 um units, where t0 and t24/48 represent the ear thickness before and 24 or 48 hours after challenge, respectively, in individual test (T). The results were expressed as the mean+/-S.E.M. The level of significance between means of the groups was obtained by Student's two-tailed t-test. […] A figure of 100 thus indicates a doubled ear thickness.

Compound: CC(=O)N[C@@H](CSSC[C@H](NC(=O)C(C)(C)C)C(=O)O)C(=O)O [Example 20, (R,R)-N-Acetyl-N'-(2,2-dimethylpropionyl)-3,3'-dithiobis(2-aminopropionic acid)]
- % Increase, 48h (0.03 »mol/kg): 14%
- % Increase, 48h: 17* %

Compound: CCCCCCCC(=O)N[C@@H](CSSC[C@H](NC(=O)CCCCCCC)C(=O)OCC)C(=O)OCC [Example 11, (R,R)-N,N'-di(1-oxo-octyl)-3,3'-dithiobis(2-aminopropionic acid)diethylester]
- % Increase, 48h (0.03 »mol/kg): 0%
- % Increase, 48h: 0%

Compound: CC(C)C(=O)N[C@@H](CSSC[C@H](NC(=O)C(C)C)C(=O)O)C(=O)O [Example 16, (R,R)-N,N'-di(2-methylpropionyl)-3,3'-dithiobis(2-aminopropionic acid)]
- % Increase, 48h (0.03 »mol/kg): 27** %
- % Increase, 48h: 62*** %

Compound: CCCCCCCC(=O)N[C@@H](CSSC[C@H](NC(=O)CCCCCCC)C(=O)OC)C(=O)OC [Example 10, (R,R)-N,N'-di(1-oxo-octyl)-3,3'-dithiobis-(2-aminopropionic acid)dimethylester]
- % Increase, 48h (0.03 »mol/kg): 28** %
- % Increase, 48h: 20* %

Compound: CC(C)(C)C(=O)N[C@@H](CSSC[C@H](NC(=O)C(C)(C)C)C(=O)O)C(=O)O [Example 21, (R,R)-N,N'-di(2,2-dimethylpropionyl)-3,3'-dithiobis(2-aminopropionic acid)]
- % Increase, 24h (increase in ear thickness 24 hours after OXA challenge, 0.03 »mol/kg): 14* %
- % Increase, 48h (0.03 »mol/kg): 26* %
- % Increase, 48h: 27* %

Compound: CCCCCC(=O)N[C@@H](CSSC[C@H](NC(=O)CCCCC)C(=O)OC)C(=O)OC [Example 9, (R,R)-N,N'-dihexanoyl-3,3'-dithiobis(2-aminopropionic acid)dimethylester]
- % Increase, 48h (0.03 »mol/kg): 51*** %
- % Increase, 48h: 45*** %

Compound: COC(=O)[C@H](CSSC[C@H](NC(=O)C(C)C)C(=O)OC)NC(=O)C(C)C [Example 14, (R,R)-N,N'-di(2-methylpropionyl)-3,3'-dithiobis(2-aminopropionic acid)dimethylester]
- % Increase, 48h (0.03 »mol/kg): 17* %
- % Increase, 48h: 27*** %
